Measured values taken from ChEMBL document CHEMBL5131391, “One-pot three-component synthesis of novel pyrazolo[3,4-b]pyridines as potent antileukemic agents” (Eur J Med Chem, 2022).

How the values were obtained:
Type in all cases: functional
K562 = experiment: Antiproliferative activity against human K562 cells assessed as reduction in cell viability incubated for 72 hrs by resazurin dye based assay; conditions: K562, 72 h
RPMI-8226 = experiment: Antiproliferative activity against human RPMI-8226 cells assessed as growth inhibition at 10 uM measured after 48 hrs by NCI protocol based SRB assay relative to control; conditions: read-out: GI
CCRF-CEM = experiment: Antiproliferative activity against human CCRF-CEM cells assessed as growth inhibition at 10 uM measured after 48 hrs by NCI protocol based SRB assay relative to control; conditions: read-out: GI
HOP-62 = experiment: Antiproliferative activity against human HOP-62 cells assessed as growth inhibition at 10 uM measured after 48 hrs by NCI protocol based SRB assay relative to control; conditions: read-out: GI
A549 = experiment: Antiproliferative activity against human A549 cells assessed as growth inhibition at 10 uM measured after 48 hrs by NCI protocol based SRB assay relative to control; conditions: read-out: GI
EKVX = experiment: Antiproliferative activity against human EKVX cells assessed as growth inhibition at 10 uM measured after 48 hrs by NCI protocol based SRB assay relative to control; conditions: read-out: GI
NCI-H322M = experiment: Antiproliferative activity against human NCI-H322M cells assessed as growth inhibition at 10 uM measured after 48 hrs by NCI protocol based SRB assay relative to control; conditions: read-out: GI
NCI-H226 = experiment: Antiproliferative activity against human NCI-H226 cells assessed as growth inhibition at 10 uM measured after 48 hrs by NCI protocol based SRB assay relative to control; conditions: read-out: GI
NCI-H23 = experiment: Antiproliferative activity against human NCI-H23 cells assessed as growth inhibition at 10 uM measured after 48 hrs by NCI protocol based SRB assay relative to control; conditions: read-out: GI
HCT-116 = experiment: Antiproliferative activity against human HCT-116 cells assessed as growth inhibition at 10 uM measured after 48 hrs by NCI protocol based SRB assay relative to control; conditions: read-out: GI
HCT-15 = experiment: Antiproliferative activity against human HCT-15 cells assessed as growth inhibition at 10 uM measured after 48 hrs by NCI protocol based SRB assay relative to control; conditions: read-out: GI
SF-268 = experiment: Antiproliferative activity against human SF-268 cells assessed as growth inhibition at 10 uM measured after 48 hrs by NCI protocol based SRB assay relative to control; conditions: read-out: GI
U-251 = experiment: Antiproliferative activity against human U-251 cells assessed as growth inhibition at 10 uM measured after 48 hrs by NCI protocol based SRB assay relative to control; conditions: read-out: GI
M14 = experiment: Antiproliferative activity against human M14 cells assessed as growth inhibition at 10 uM measured after 48 hrs by NCI protocol based SRB assay relative to control; conditions: read-out: GI
LOX IMVI = experiment: Antiproliferative activity against human LOX IMVI cells assessed as growth inhibition at 10 uM measured after 48 hrs by NCI protocol based SRB assay relative to control; conditions: read-out: GI
SK-MEL-5 = experiment: Antiproliferative activity against human SK-MEL-5 cells assessed as growth inhibition at 10 uM measured after 48 hrs by NCI protocol based SRB assay relative to control; conditions: read-out: GI
UACC-62 = experiment: Antiproliferative activity against human UACC-62 cells assessed as growth inhibition at 10 uM measured after 48 hrs by NCI protocol based SRB assay relative to control; conditions: read-out: GI
IGROV-1 = experiment: Antiproliferative activity against human IGROV-1 cells assessed as growth inhibition at 10 uM measured after 48 hrs by NCI protocol based SRB assay relative to control; conditions: read-out: GI
OVCAR-3 = experiment: Antiproliferative activity against human OVCAR-3 cells assessed as growth inhibition at 10 uM measured after 48 hrs by NCI protocol based SRB assay relative to control; conditions: read-out: GI
OVCAR-4 = experiment: Antiproliferative activity against human OVCAR-4 cells assessed as growth inhibition at 10 uM measured after 48 hrs by NCI protocol based SRB assay relative to control; conditions: read-out: GI
NCI/ADR-RES = experiment: Antiproliferative activity against human NCl/ADR-RES cells assessed as growth inhibition at 10 uM measured after 48 hrs by NCI protocol based SRB assay relative to control; conditions: read-out: GI
SN12C = experiment: Antiproliferative activity against human SN12C cells assessed as growth inhibition at 10 uM measured after 48 hrs by NCI protocol based SRB assay relative to control; conditions: read-out: GI
ACHN = experiment: Antiproliferative activity against human ACHN cells assessed as growth inhibition at 10 uM measured after 48 hrs by NCI protocol based SRB assay relative to control; conditions: read-out: GI
CAKI-1 = experiment: Antiproliferative activity against human CAKI-1 cells assessed as growth inhibition at 10 uM measured after 48 hrs by NCI protocol based SRB assay relative to control; conditions: read-out: GI
RXF 393 = experiment: Antiproliferative activity against human RXF 393 cells assessed as growth inhibition at 10 uM measured after 48 hrs by NCI protocol based SRB assay relative to control; conditions: read-out: GI
UO-31 = experiment: Antiproliferative activity against human UO-31 cells assessed as growth inhibition at 10 uM measured after 48 hrs by NCI protocol based SRB assay relative to control; conditions: read-out: GI
PC-3 = experiment: Antiproliferative activity against human PC-3 cells assessed as growth inhibition at 10 uM measured after 48 hrs by NCI protocol based SRB assay relative to control; conditions: read-out: GI
DU-145 = experiment: Antiproliferative activity against human DU-145 cells assessed as growth inhibition at 10 uM measured after 48 hrs by NCI protocol based SRB assay relative to control; conditions: read-out: GI
MDA-MB-231 = experiment: Antiproliferative activity against human MDA-MB-231 cells assessed as growth inhibition at 10 uM measured after 48 hrs by NCI protocol based SRB assay relative to control; conditions: read-out: GI
MCF7 = experiment: Antiproliferative activity against human MCF7 cells assessed as growth inhibition at 10 uM measured after 48 hrs by NCI protocol based SRB assay relative to control; conditions: read-out: GI
T47D = experiment: Antiproliferative activity against human T47D cells assessed as growth inhibition at 10 uM measured after 48 hrs by NCI protocol based SRB assay relative to control; conditions: read-out: GI
MDA-MB-468 = experiment: Antiproliferative activity against human MDA-MB-468 cells assessed as growth inhibition at 10 uM measured after 48 hrs by NCI protocol based SRB assay relative to control; conditions: read-out: GI
MV4-11 = experiment: Antiproliferative activity against human MV4-11 cells assessed as reduction in cell viability incubated for 72 hrs by resazurin dye based assay; conditions: MV4-11, 72 h
MOLT-4 = experiment: Antiproliferative activity against human MOLT-4 cells assessed as growth inhibition at 10 uM measured after 48 hrs by NCI protocol based SRB assay relative to control; conditions: read-out: GI
SF-295 = experiment: Antiproliferative activity against human SF-295 cells assessed as growth inhibition at 10 uM measured after 48 hrs by NCI protocol based SRB assay relative to control; conditions: read-out: GI
UACC-257 = experiment: Antiproliferative activity against human UACC-257 cells assessed as growth inhibition at 10 uM measured after 48 hrs by NCI protocol based SRB assay relative to control; conditions: read-out: GI

COc1cc(-c2c(C#N)c(-c3ccccc3)nc3c2c(-c2ccccc2)nn3-c2ccccc2)ccc1O
IC50 (K562): > 50 µM | inhibition of growth at 10 µM (RPMI-8226): 40% | inhibition of growth at 10 µM (CCRF-CEM): 31% | inhibition of growth at 10 µM (HOP-62): 15% | inhibition of growth at 10 µM (A549): 48% | inhibition of growth at 10 µM (EKVX): 18% | inhibition of growth at 10 µM (NCI-H322M): 17% | inhibition of growth at 10 µM (NCI-H226): 24% | inhibition of growth at 10 µM (NCI-H23): 26% | inhibition of growth at 10 µM (HCT-116): 45% | inhibition of growth at 10 µM (HCT-15): 30% | inhibition of growth at 10 µM (SF-268): 27% | inhibition of growth at 10 µM (U-251): 31% | inhibition of growth at 10 µM (M14): 19% | inhibition of growth at 10 µM (LOX IMVI): 26% | inhibition of growth at 10 µM (SK-MEL-5): 21% | inhibition of growth at 10 µM (UACC-62): 12% | inhibition of growth at 10 µM (IGROV-1): 13% | inhibition of growth at 10 µM (OVCAR-3): 23% | inhibition of growth at 10 µM (OVCAR-4): 34% | inhibition of growth at 10 µM (NCI/ADR-RES): 22% | inhibition of growth at 10 µM (SN12C): 32% | inhibition of growth at 10 µM (ACHN): 13% | inhibition of growth at 10 µM (CAKI-1): 37% | inhibition of growth at 10 µM (RXF 393): 42% | inhibition of growth at 10 µM (UO-31): 32% | inhibition of growth at 10 µM (PC-3): 49% | inhibition of growth at 10 µM (DU-145): 25% | inhibition of growth at 10 µM (MDA-MB-231): 28% | inhibition of growth at 10 µM (MCF7): 53% | inhibition of growth at 10 µM (T47D): 39% | inhibition of growth at 10 µM (MDA-MB-468): 38% | IC50 (MV4-11): > 50 µM

N#Cc1c(-c2ccco2)nc2c(c(-c3ccccc3)nn2-c2ccccc2)c1-c1ccc(O)cc1
IC50 (K562): 4.2 µM | inhibition of growth at 10 µM (RPMI-8226): 45% | inhibition of growth at 10 µM (CCRF-CEM): 59% | inhibition of growth at 10 µM (MOLT-4): 91% | inhibition of growth at 10 µM (HOP-62): 149% | inhibition of growth at 10 µM (A549): 54% | inhibition of growth at 10 µM (EKVX): 44% | inhibition of growth at 10 µM (NCI-H322M): 19% | inhibition of growth at 10 µM (NCI-H226): 27% | inhibition of growth at 10 µM (HCT-116): 64% | inhibition of growth at 10 µM (HCT-15): 62% | inhibition of growth at 10 µM (SF-295): 34% | inhibition of growth at 10 µM (SF-268): 33% | inhibition of growth at 10 µM (U-251): 39% | inhibition of growth at 10 µM (M14): 35% | inhibition of growth at 10 µM (SK-MEL-5): 13% | inhibition of growth at 10 µM (UACC-62): 11% | inhibition of growth at 10 µM (UACC-257): 40% | inhibition of growth at 10 µM (IGROV-1): 16% | inhibition of growth at 10 µM (OVCAR-3): 14% | inhibition of growth at 10 µM (OVCAR-4): 23% | inhibition of growth at 10 µM (NCI/ADR-RES): 24% | inhibition of growth at 10 µM (SN12C): 18% | inhibition of growth at 10 µM (ACHN): 28% | inhibition of growth at 10 µM (CAKI-1): 42% | inhibition of growth at 10 µM (PC-3): 77% | inhibition of growth at 10 µM (DU-145): 25% | inhibition of growth at 10 µM (MDA-MB-231): 18% | inhibition of growth at 10 µM (MCF7): 53% | inhibition of growth at 10 µM (T47D): 82% | IC50 (MV4-11): 13.8 µM

Cc1ccc(-c2nc3c(c(-c4ccccc4)nn3-c3ccccc3)c(-c3ccc(O)cc3)c2C#N)cc1
IC50 (K562): 8.8 µM | inhibition of growth at 10 µM (RPMI-8226): 79% | inhibition of growth at 10 µM (CCRF-CEM): 61% | inhibition of growth at 10 µM (MOLT-4): 60% | inhibition of growth at 10 µM (HOP-62): 60% | inhibition of growth at 10 µM (A549): 48% | inhibition of growth at 10 µM (EKVX): 26% | inhibition of growth at 10 µM (NCI-H322M): 12% | inhibition of growth at 10 µM (NCI-H226): 21% | inhibition of growth at 10 µM (NCI-H23): 33% | inhibition of growth at 10 µM (HCT-116): 58% | inhibition of growth at 10 µM (HCT-15): 72% | inhibition of growth at 10 µM (SF-295): 120% | inhibition of growth at 10 µM (SF-268): 40% | inhibition of growth at 10 µM (U-251): 59% | inhibition of growth at 10 µM (M14): 40% | inhibition of growth at 10 µM (LOX IMVI): 88% | inhibition of growth at 10 µM (SK-MEL-5): 23% | inhibition of growth at 10 µM (UACC-62): 37% | inhibition of growth at 10 µM (IGROV-1): 18% | inhibition of growth at 10 µM (OVCAR-3): 36% | inhibition of growth at 10 µM (OVCAR-4): 18% | inhibition of growth at 10 µM (NCI/ADR-RES): 19% | inhibition of growth at 10 µM (SN12C): 47% | inhibition of growth at 10 µM (ACHN): 33% | inhibition of growth at 10 µM (CAKI-1): 50% | inhibition of growth at 10 µM (RXF 393): 110% | inhibition of growth at 10 µM (UO-31): 61% | inhibition of growth at 10 µM (PC-3): 66% | inhibition of growth at 10 µM (DU-145): 40% | inhibition of growth at 10 µM (MDA-MB-231): 55% | inhibition of growth at 10 µM (MCF7): 74% | inhibition of growth at 10 µM (T47D): 39% | inhibition of growth at 10 µM (MDA-MB-468): 48% | IC50 (MV4-11): 3.3 µM
